Results reported in patent US20100304380A1, “Quantitative DNA Methylation Imaging of Cells and Tissues” (EPILUMINA, INC., priority 2009, published 2010).

How the values were obtained:
[1] = test system: AtT20 mouse pituitary tumor cells; assay: Quantitative DNA Methylation (MeC) Imaging of nuclear MeC/DAPI colocalization; format: cell-based; settings: treated AtT20 cells in culture versus untreated cells (tight colocalization); FIG. 3
Excerpt: Approximately 55% of the human genome is comprised of heterochromatin. […] Therefore, we used the genome and its 3D organization as an indicator to evaluate the effect of demethylating drugs on cancer cells in situ. Our approach provides a statistical measurement on the two classes of DNAs (MeC and DAPI-positive gDNA) as nuclear targets. The algorithm compares the relative distribution of signals derived from these two targets (from two color-channels), projects them onto scatter plots (FIGS. 3 and 4), and then measures the degree of similarities between the plotted signal distributions of cells within a population. This method offers a way to evaluate cellular response to external factors such as drugs and changes in culture conditions via dissimilarity assessment of relevant cellular structures. […] This method considers the strength of statistical evaluation of intra-nuclear MeC/DAPI patterns, especially valuable when cell population homogeneity is difficult to be assessed due to lack of standardized reference and sample size.
FIG. 1 is a workflow of Quantitative DNA Methylation (MeC) Imaging comprised of three steps: (1) immunofluorescence with antibodies against MeC (and against a cell-type or cell-characteristic marker) and DNA counterstaining with DAPI, (2) high-resolution fluorescence microscopy to collect 2D optical sections of the cells, and (3) 3D fluorescence image analysis. […]

[2] = test system: TtT-GF mouse folliculostellate pituitary cell nuclei; assay: Quantitative DNA Methylation Imaging of nuclear MeC/DAPI colocalization; format: cell-based; settings: 100 nM, 24 hours, TtT-GF cells in culture; selected cells 1-5; FIG. 4
Excerpt: Therefore, we used the genome and its 3D organization as an indicator to evaluate the effect of demethylating drugs on cancer cells in situ. Our approach provides a statistical measurement on the two classes of DNAs (MeC and DAPI-positive gDNA) as nuclear targets. The algorithm compares the relative distribution of signals derived from these two targets (from two color-channels), projects them onto scatter plots (FIGS. 3 and 4), and then measures the degree of similarities between the plotted signal distributions of cells within a population. This method offers a way to evaluate cellular response to external factors such as drugs and changes in culture conditions via dissimilarity assessment of relevant cellular structures. […] This method considers the strength of statistical evaluation of intra-nuclear MeC/DAPI patterns, especially valuable when cell population homogeneity is difficult to be assessed due to lack of standardized reference and sample size. FIG. 1 is a workflow of Quantitative DNA Methylation (MeC) Imaging comprised of three steps: (1) immunofluorescence with antibodies against MeC (and against a cell-type or cell-characteristic marker) and DNA counterstaining with DAPI, (2) high-resolution fluorescence microscopy to collect 2D optical sections of the cells, and (3) 3D fluorescence image analysis. […]

Row | SMILES | change of nuclear DNA methylation patterns (MeC vs heterochromatin/DAPI colocalization) [1] | response (demethylation) of the cell population, MeC vs heterochromatin/DAPI colocalization [2]
1 | Nc1ncn([C@@H]2O[C@H](CO)[C@@H](O)[C@H]2O)c(=O)n1 [5-azacytidine] | large foci that are uniquely comprised of three types of signals/genomic loci | –
2 | C[C@@H](O)[C@@H]1NC(=O)[C@H](CCCCN)NC(=O)[C@@H](Cc2c[nH]c3ccccc23)NC(=O)[C@H](Cc2ccccc2)NC(=O)[C@@H](NC(=O)[C@H](N)Cc2ccccc2)CSSC[C@@H](C(=O)N[C@H](CO)[C@@H](C)O)NC1=O [octreotide] | – | diverse response
